# Assays:
# [1] = system: H929 cells and CD138+ primary MM cells; experiment: qRT-PCR of B cell and PC markers in MM cells, liquid or BM stroma co-culture; format: cell-based, human; details: absence of stroma (Liquid), 1 μM for 5 days
# Procedure: FIG. 3A-H depicts the relative concentration of plasma markers BCL6 (FIG. 3A and E), BLIMP-1 (FIG. 3B and F), XBPS-1 (FIG. 3C and G), and CHOP (FIG. 3D and H) in multiple myeloma (MM) cell lines H929 (FIG. 3A-D) or CD138+ MM cells from three different patient samples (FIG. 3E-H) incubated for 5 days either in the absence of stroma (Liquid), with or without AGN (RA receptor antagonist AGN194310, 1 μM), or co-cultured with BM mesenchymal cells (Stroma), with or without R115 (CYP26 inhibitor R115866, 1 μM) or IRX (CYP26-resistant retinoid IRX5183, 1 μM). Expression in untreated liquid conditions was set at 1. Data are representative of 3 independent experiments with similar results and represent the mean ±SEM. *P≤0.05 and **P≤0.01, by repeated-measures 1-way ANOVA for determination of statistical significance between groups; P values were corrected for multiple comparisons using Dunnett's test. Ctrl, control; max, maximum.
# (§1) Coculture experiments. 24-well plates were coated with 0.1% gelatin in PBS for 30 min at 37° C. The gelatin solution was removed, and the stromal cells were cultured overnight at a density of 5×10^4 cells/well to obtain a confluent monolayer. At that time, MM cell lines or primary MM cells (1×10^5 in 2 ml) were added to the stroma cultures. The stroma cocultures were incubated at 37° C. in RPMI containing 10% FCS, L-glutamine, and P/S, with or without AGN194310 (1 μM for 5 days), R115866 (1 μM for 5 days), IRX5183 (1 μM for 5 days), or BTZ (2.5 nM for 48 hr).
# (§2) qRT-PCR. Total RNA was extracted using the RNeasy Mini Kit (QIAGEN) according to the manufacturer's instructions. cDNA was synthesized by reverse transcription using the iScript cDNA Synthesis Kit (Bio-Rad). qRT-PCR was performed with iTaq SYBR Green Supermix (Bio-Rad) using sequence specific primers. Gene expression was normalized to GAPDH, and relative quantification was calculated using ΔΔCt. All experiments were performed in duplicate and run on the Bio-Rad CFX96 machine.
# The BM microenvironment (also called “niche”) limits PC differentiation by modulating retinoid signaling. A population of MM progenitors, phenotypically similar to B cells, is intrinsically resistant to BTZ and contributes to MRD and relapse. To investigate whether the BM niche plays a role in determining the phenotype of MM cells, the mRNA expression of B cell and PC markers in MM H929 cell lines (FIG. 3A-D) and MM CD138+ primary cells (FIG. 3E-H) was analyzed following co-culture with mouse BM stroma using human-specific primers. […] In contrast, co-culture of MM cells with BM stroma decreased the mRNA expression of B lymphocyte-induced maturation protein 1 (BLIMP1) and spliced X box-binding protein 1 (XBP1s) (FIG. 3B, C, F, G), which are critical mediators of PC differentiation.
# The BM niche regulates hematopoietic stem cell (HSC) differentiation by expressing the retinoid-inactivating enzyme CYP26. CYP26 enzymes were highly expressed in BM mesenchymal cells, while their expression was barely detectable in MM cells. Since retinoid signaling promotes PC differentiation and potentiates Ig secretion, it was determined whether stromal CYP26 is responsible for inducing a B cell phenotype in MM cells. To this end, co-culture conditions were treated with the CYP26 inhibitor R115866 (R115) or the CYP26-resistant RA receptor α-selective (RARα-selective) retinoid IRX5183 (IRX).
# MM cells = experiment: surface CD138 expression of MM cells by flow cytometry; format: cell-based, human; details: absence of stroma, 1 μM
# Procedure: as §1
# Flow cytometry. Following treatment, MM cells were collected, washed with PBS, and stained for 15 min at room temperature with phycoerythrin-conjugated (PE-conjugated) anti-CD138. Cells were washed to remove unbound antibody and evaluated in a FACSCalibur system (BD Biosciences). Stromal cells were identified by GFP expression, and viable cells were identified using 7-aminoactinomycin D (7-AAD). To calculate cell numbers, live GFP-cells were normalized to calibration beads.
# Expression of CD138 is a hallmark of normal PC differentiation as well MM PCs.
# [2] = system: H929 cells and primary CD138+ MM cells; experiment: clonogenic or cellular recovery of MM cells after BTZ treatment; format: cell-based, human; details: absence of stroma, 1 μM for 5 days, then BTZ 2.5 nM
# Procedure: FIG. 4A-B depicts the clonogenic recovery (CFU) of H929 cells (FIG. 4A) or cellular recovery of primary CD138+ MM cells from 3 different patient samples (FIG. 4B). MM cells were treated with bortezomib (BTZ; 2.5 nM) for 48 hours after being incubated for 5 days either in the absence of stroma (Liquid), with or without the pan-RAR inhibitor AGN (1 μM), or in the presence of BM mesenchymal cells (Stroma), with or without the CYP26 inhibitor R115 (1 μM) or the CYP26-resistant retinoid IRX (1 μM). Clonogenic or cellular recovery was normalized to each condition in the absence of BTZ.
# as §1
# Clonogenic assays. After treatment, MM cells were collected, washed with PBS, and plated at a density of 5,000 cells/ml in 1 ml of 1.32% methylcellulose supplemented with 30% FBS, 10% BSA, L-glutamine, P/S, and 0.1 mM β-ME. Cells were plated in triplicate in 35-mm culture dishes, incubated at 37° C., and scored for the presence of colonies 14 days later.
# A RA-low microenvironment induces BTZ resistance. To determine whether decreased retinoid signaling contributes to BTZ resistance within the BM niche, MM cell lines and MM CD138+ primary cells were incubated with BM stroma for 5 days, followed by BTZ treatment.
# [3] = system: naive CD4+ CD25− FoxP3− cells; experiment: in vitro Treg cell differentiation (FoxP3-GFP, flow cytometry); format: cell-based, mouse; details: data not shown
# Procedure: (§3) To determine whether a RARα agonist could affect T cell differentiation, T cells were incubated with a RARα agonist to determine its effect on Foxp3 expression. Naive CD4^+ CD25^− FoxP3^− cells were purified from a Foxp3-GFP mouse using flow cytometry by sorting and isolating based upon a GFP^− phenotype. These cells were activated polyclonally with αCD3 in vitro in the presence of IL-2 and TGF-β. These cells were then cultured in media with various concentrations of compound IRX5183 (a RARα agonist) and the expression of FoxP3-GFP was analyzed by flow cytometry. The RARα agonist compound IRX5183 enhanced differentiation of immunosuppressive Treg cells and inhibited differentiation of inflammatory TH17 cells from naïve T cells in vitro (Table 2).
# [4] = system: naive CD4+ CD25− FoxP3− cells; experiment: in vitro Th17 cell differentiation; format: cell-based, mouse; details: in vitro, data not shown
# Procedure: as §3
# CD4+ T cells = experiment: in vivo T cell differentiation in mice (blood and spleen); design: species or system mouse; details: in vivo, data not shown
# Procedure: To expand on the finding above, the in vivo effects of a RARα agonist on T cell differentiation was evaluated in a mouse model. Mice were treated with 100 μg of compound IRX5183 or an equivalent volume of DMSO (vehicle control) every other day for 10 days. Lymphocytes from the blood and spleen were then isolated and FoxP3 expression in CD4^+ T cells was assessed.
# Kasumi-1 cells = experiment: CFU experiments, off and on stroma; format: cell-based; details: 10^−6 M ATRA, IRX5183, or 10^−7 M AM80
# Description: (§4) Data across three independent experiments.
# NB4 cells = experiment: CFU experiments, off and on stroma; format: cell-based; details: 10^−7 M ATRA, IRX5183, or 10^−8 M AM80
# Description: as §4
# OCI-AML3 cells = experiment: CFU experiments, off and on stroma; format: cell-based; details: 10^−6 M ATRA, IRX5183, or 10^−7 M AM80
# Description: as §4
# [5] = system: FLT3/ITD acute myeloid leukemia (AML) cells; details: cited from earlier work
# BM stromal cells = experiment: stromal Cyp26a1 upregulation by MM cells in coculture; format: cell-based, mouse; details: coculture with MM cells
# Procedure: as §2
# To confirm the role of paracrine Hedgehog on this interaction, smoothened (Smo), a membrane receptor that transduces SHH signaling, was knocked out at the genomic level in the mesenchymal compartment. For this, BM mesenchymal cells derived from Smo^fl/fl mice were transduced with a retroviral vector encoding Cre recombinase (Smo-KO stroma). Mouse Smo^fl/fl stromal cells transduced with an empty retroviral vector were used as a control (WT stroma). The transduced BM stromal cells were cocultured with MM cells for 24 hr.
# [6] = system: relapse/refractory patients; details: in combination with BTZ; cited from earlier work
smiles,measurement,setting,value
CCc1ccc(C2=CC(C)(C)Sc3ccc(C#Cc4ccc(C(=O)O)cc4)cc32)cc1 [AGN194310],"mRNA expression of B cell and PC markers (BCL6, BLIMP1, XBP1s, CHOP)",[1],mimicked the changes induced by BM stromal cells
same,surface CD138 expression,MM cells,markedly decreased
same,effect on BTZ sensitivity,[2],decreasing BTZ sensitivity
CCOc1c(Br)cc(C(=O)Nc2ccc(C(=O)O)cc2)cc1C(=O)c1ccc(C)cc1 [AGN196996],Treg cell numbers,[3],decreases Treg cell numbers
same,Th17 cell numbers,[4],increases Th17 cell numbers
same,Th17 cell numbers,CD4+ T cells,increases Th17 cell numbers
same,Treg cell numbers,CD4+ T cells,decreases Treg cell numbers
"CC1(C)CCC(C)(C)c2cc(NC(=O)c3ccc(C(=O)O)cc3)ccc21 [AM80, 4-[(5,6,7,8-tetrahydro-5,5,8,8-tetramethyl-2-naphthalenyl)carbamoyl]benzoic acid]","clonogenic growth (CFU), differentiation and elimination of AML",Kasumi-1 cells,decrease in clonogenic growth compared to control
same,"clonogenic growth (CFU), differentiation and elimination of AML",NB4 cells,decrease in clonogenic growth compared to control
same,"clonogenic growth (CFU), differentiation and elimination of AML",OCI-AML3 cells,decrease in clonogenic growth compared to control
same,differentiation and sensitivity to FLT3 inhibitors,[5],differentiates FMS-like tyrosine kinase 3/internal tandem duplication (FLT3/ITD) acute myeloid leukemia (AML) cells and increase their sensitivity to FLT3 inhibitors
CC1=C2C[C@H]3[C@@H](CC=C4C[C@@H](O)CC[C@@]43C)[C@@H]2CC[C@]12O[C@@H]1C[C@H](C)CN[C@H]1[C@H]2C [cyclopamine],stromal Cyp26a1 upregulation by MM cells,BM stromal cells,partially overcame stromal Cyp26a1 upregulation by MM cells
c1cc(CN2CCCNCCNCCCNCC2)ccc1CN1CCCNCCNCCCNCC1 [plerixafor],response rates,[6],improved response rates

# Reference: US11786555B2, “RAR selective agonists in combination with immune modulators for cancer immunotherapy” (IO THERAPEUTICS, INC., priority 2017, dated 2023)
